Here are results for 4 compounds from US6593339B1, “Use of compounds as antibacterial agents” (AstraZeneca AB, priority 1999, dated 2003).

In the assay the test system is Helicobacter pylori Reference Strain NCTC 11 637. The assay can be described thus: Agar well diffusion test: inhibition zones around wells on blood agar plates. The format is cell-based. The note with it: 30 μl per 3 mm well, incubated four days. As for the experimental part:
Strain: Helicobacter pylori Reference Strain NCTC 11 637 (National Type Culture Collection, from Smittskyddsinstitutet in Solna, Sweden), an Antibiotic Sensitive Reference Strain
Helicobacter pylori was grown on blood agar plates, having a diameter of 90 mm. for three days under microaerophilic conditions at 37° C. The bacteria were suspended in PBS (phosphate buffer saline) to approximately 10^8 cfu/ml. Approximately 2 ml of the suspension was added to one agar plate and spread even on the surface of the agar. Overflow was removed with a syringe. Wells, like small holes, 3 mm in diameter, were made in the agarplate by removing agar. Three wells per plate were made. […] 30 μl of the solution was added to the wells. The plates were incubated for four days before they were checked for inhibition zones around the wells.

The structures appear in SMILES notation.

For the compound `C[S+](C)[O-]` [DMSO, Di-methyl-sulphate-oxide], where the note is “solution 20 μg/ml”, the “inhibition zone around each well” value is “No inhibition zones”.

For `COc1ccc2cc([C@H](C)C(=O)O)ccc2c1` [Naproxen], the zone of inhibition at 10000 µg/mL (Helicobacter pylori, NCTC11, 96 h, stock solution 10000 μg/ml, read-out: inhibition zone around each well) worked out at 16.6 mm. The “inhibition zone around each well” value runs as follows: (stock solution 100 μg/ml) “No inhibition zones”; (stock solution 1000 μg/ml) “No inhibition zones”.

Consider `CC(=O)N[C@H](C(=O)O)C(C)(C)SN=O` [SNAP, S-nitroso-N-acetyl-penicillamin], for which, under “stock solution 10000 μg/ml”, the “inhibition zone around each well” value is “No inhibition zones”.

`COc1ccc2cc(C(C)C(=O)OCCCCO[N+](=O)[O-])ccc2c1` (stereo not drawn) [formula Ia]: the zone of inhibition at 100 µg/mL (Helicobacter pylori, NCTC11, 96 h, stock solution 100 μg/ml, read-out: inhibition zone around each well) was found to be 10.4 mm. Moreover, the zone of inhibition at 1000 µg/mL (Helicobacter pylori, NCTC11, 96 h, stock solution 1000 μg/ml, read-out: inhibition zone around each well) was determined as 13 mm. The “inhibition zone around each well” value is listed as “large” (stock solution 10000 μg/ml) and “large” (stock solution 100000 μg/ml).
